# Tests used:
# Format in all cases: in vivo
# corn (Zea mays) [1] = experiment: Test G Pre-Emergence Protocol; conditions: Zea mays, pre-emergence, 312 h, evaluated after 13 days; for plant injury at 15.625 g/ha: 15.625 g ai/ha; for plant injury at 15.625 g/ha / plant injury at 250 g/ha: read-out: Corn damage rating (100=total damage to plant; 0=no damage to plant); for plant injury at 62.5 g/ha: 62.5 g ai/ha, 100=total damage to plant, 0=no damage to plant, read-out: plant damage rating, Corn; for plant injury at 250 g/ha: 250 g ai/ha
# Summary of the method: (§1)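 Seeds were sown in standard soil and kept one day in a glasshouse (24/16° C day/night, 14 h light, 65% humidity), then sprayed with compound in acetone/water (50:50) containing 0.5% Tween 20 at 15.625, 62.5 or 250 g/ha. Damage was scored after 13 days (0 = none, 100 = total).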
# [2] = system: velvetleaf (Abutilon theophrasti); experiment: Test G Pre-Emergence Protocol; conditions: Abutilon theophrasti, pre-emergence, 312 h, evaluated after 13 days; for pest or weed control at 15.625 g/ha: 15.625 g ai/ha; for pest or weed control at 15.625 g/ha / pest or weed control at 250 g/ha: read-out: Velvetleaf damage rating (100=total damage to plant; 0=no damage to plant); for pest or weed control at 62.5 g/ha: 62.5 g ai/ha, 100=total damage to plant, 0=no damage to plant, read-out: plant damage rating, Velvetleaf; for pest or weed control at 250 g/ha: 250 g ai/ha
# Summary of the method: as §1
# [3] = system: ivy-leaved morning glory (Ipomoea hederacea); experiment: Test G Pre-Emergence Protocol; conditions: Ipomoea, pre-emergence, 312 h, evaluated after 13 days; for pest or weed control at 15.625 g/ha: 15.625 g ai/ha, read-out: Morning-glory, Ivy-leaved damage rating (100=total damage to plant; 0=no damage to plant); for pest or weed control at 62.5 g/ha: 62.5 g ai/ha, 100=total damage to plant, 0=no damage to plant, read-out: plant damage rating, Morningglory, Ivy-leaved; for pest or weed control at 250 g/ha: 250 g ai/ha, read-out: Morningglory, Ivy-leaved damage rating (100=total damage to plant; 0=no damage to plant)
# Summary of the method: as §1
# [4] = system: giant foxtail (Setaria faberi); experiment: Test G Pre-Emergence Protocol; conditions: Setaria faberi, pre-emergence, 312 h, evaluated after 13 days; for pest or weed control at 15.625 g/ha: 15.625 g ai/ha; for pest or weed control at 15.625 g/ha / pest or weed control at 250 g/ha: read-out: Foxtail, Giant damage rating (100=total damage to plant; 0=no damage to plant); for pest or weed control at 62.5 g/ha: 62.5 g ai/ha, 100=total damage to plant, 0=no damage to plant, read-out: plant damage rating, Foxtail, Giant; for pest or weed control at 250 g/ha: 250 g ai/ha
# Summary of the method: as §1
# [5] = system: redroot pigweed (Amaranthus retroflexus); experiment: Test G Pre-Emergence Protocol; conditions: Amaranthus retroflexus, pre-emergence, 312 h, evaluated after 13 days; for pest or weed control at 15.625 g/ha: 15.625 g ai/ha; for pest or weed control at 15.625 g/ha / pest or weed control at 250 g/ha: read-out: Pigweed, Redroot damage rating (100=total damage to plant; 0=no damage to plant); for pest or weed control at 62.5 g/ha: 62.5 g ai/ha, 100=total damage to plant, 0=no damage to plant, read-out: plant damage rating, Pigweed, Redroot; for pest or weed control at 250 g/ha: 250 g ai/ha
# Summary of the method: as §1
# [6] = system: barnyardgrass (Echinochloa crus-galli); experiment: Test G Pre-Emergence Protocol; conditions: Echinochloa crus-galli, pre-emergence, 312 h, evaluated after 13 days; for pest or weed control at 15.625 g/ha: 15.625 g ai/ha, read-out: Barnyard grass damage rating (100=total damage to plant; 0=no damage to plant); for pest or weed control at 62.5 g/ha: 62.5 g ai/ha, 100=total damage to plant, 0=no damage to plant, read-out: plant damage rating, Barnyardgrass; for pest or weed control at 250 g/ha: 250 g ai/ha, read-out: Barnyardgrass damage rating (100=total damage to plant; 0=no damage to plant)
# Summary of the method: as §1
# corn (Zea mays) [7] = experiment: Test G Post-Emergence Protocol; conditions: Zea mays, post-emergence, 312 h; for plant injury at 15.625 g/ha: 15.625 g ai/ha, evaluated after 13 days (100=total damage to plant; 0=no damage to plant), read-out: Corn damage rating; for plant injury at 62.5 g/ha: 62.5 g ai/ha, read-out: Corn damage rating (100=total damage to plant; 0=no damage to plant); for plant injury at 62.5 g/ha / plant injury at 250 g/ha: evaluated after 13 days; for plant injury at 250 g/ha: 250 g ai/ha, read-out: damage to plant, Corn (100=total damage to plant; 0=no damage to plant)
# Summary of the method: (§2)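 A glasshouse post-emergence test: 8-day-old plants sprayed at 15.625, 62.5 or 250 g/ha, then grown at 24/16 °C day/night with 14 h light and 65% humidity. Damage rated 13 days later, 0–100.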
# [8] = system: velvetleaf (Abutilon theophrasti); experiment: Test G Post-Emergence Protocol; conditions: Abutilon theophrasti, post-emergence, 312 h; for pest or weed control at 15.625 g/ha: 15.625 g ai/ha, evaluated after 13 days (100=total damage to plant; 0=no damage to plant), read-out: Velvetleaf damage rating; for pest or weed control at 62.5 g/ha: 62.5 g ai/ha, read-out: Velvetleaf damage rating (100=total damage to plant; 0=no damage to plant); for pest or weed control at 62.5 g/ha / pest or weed control at 250 g/ha: evaluated after 13 days; for pest or weed control at 250 g/ha: 250 g ai/ha, read-out: damage to plant, Velvetleaf (100=total damage to plant; 0=no damage to plant)
# Summary of the method: as §2
# [9] = system: ivy-leaved morning glory (Ipomoea hederacea); experiment: Test G Post-Emergence Protocol; conditions: Ipomoea, post-emergence, 312 h; for pest or weed control at 15.625 g/ha: 15.625 g ai/ha, evaluated after 13 days (100=total damage to plant; 0=no damage to plant), read-out: Morningglory, Ivy-leaved damage rating; for pest or weed control at 62.5 g/ha: 62.5 g ai/ha, read-out: Morningglory, Ivy-leaved damage rating (100=total damage to plant; 0=no damage to plant); for pest or weed control at 62.5 g/ha / pest or weed control at 250 g/ha: evaluated after 13 days; for pest or weed control at 250 g/ha: 250 g ai/ha, read-out: damage to plant, Morningglory, Ivy-leaved (100=total damage to plant; 0=no damage to plant)
# Summary of the method: as §2
# [10] = system: giant foxtail (Setaria faberi); experiment: Test G Post-Emergence Protocol; conditions: Setaria faberi, post-emergence, 312 h; for pest or weed control at 15.625 g/ha: 15.625 g ai/ha, evaluated after 13 days (100=total damage to plant; 0=no damage to plant), read-out: Foxtail, Giant damage rating; for pest or weed control at 62.5 g/ha: 62.5 g ai/ha, read-out: Foxtail, Giant damage rating (100=total damage to plant; 0=no damage to plant); for pest or weed control at 62.5 g/ha / pest or weed control at 250 g/ha: evaluated after 13 days; for pest or weed control at 250 g/ha: 250 g ai/ha, read-out: damage to plant, Foxtail, Giant (100=total damage to plant; 0=no damage to plant)
# Summary of the method: as §2
# [11] = system: redroot pigweed (Amaranthus retroflexus); experiment: Test G Post-Emergence Protocol; conditions: Amaranthus retroflexus, post-emergence, 312 h; for pest or weed control at 15.625 g/ha: 15.625 g ai/ha, evaluated after 13 days (100=total damage to plant; 0=no damage to plant), read-out: Pigweed, Redroot damage rating; for pest or weed control at 62.5 g/ha: 62.5 g ai/ha, read-out: Pigweed, Redroot damage rating (100=total damage to plant; 0=no damage to plant); for pest or weed control at 62.5 g/ha / pest or weed control at 250 g/ha: evaluated after 13 days; for pest or weed control at 250 g/ha: 250 g ai/ha, read-out: damage to plant, Pigweed, Redroot (100=total damage to plant; 0=no damage to plant)
# Summary of the method: as §2
# [12] = system: barnyardgrass (Echinochloa crus-galli); experiment: Test G Post-Emergence Protocol; conditions: Echinochloa crus-galli, post-emergence, 312 h; for pest or weed control at 15.625 g/ha: 15.625 g ai/ha, evaluated after 13 days (100=total damage to plant; 0=no damage to plant), read-out: Barnyardgrass damage rating; for pest or weed control at 62.5 g/ha: 62.5 g ai/ha, read-out: Barnyardgrass damage rating (100=total damage to plant; 0=no damage to plant); for pest or weed control at 62.5 g/ha / pest or weed control at 250 g/ha: evaluated after 13 days; for pest or weed control at 250 g/ha: 250 g ai/ha, read-out: damage to plant, Barnyardgrass (100=total damage to plant; 0=no damage to plant)
# Summary of the method: as §2
SMILES,plant injury at 15.625 g/ha (corn (Zea mays) [1]),plant injury at 62.5 g/ha (corn (Zea mays) [1]),plant injury at 250 g/ha (corn (Zea mays) [1]),pest or weed control at 15.625 g/ha [2],pest or weed control at 62.5 g/ha [2],pest or weed control at 250 g/ha [2],pest or weed control at 15.625 g/ha [3],pest or weed control at 250 g/ha [3],pest or weed control at 15.625 g/ha [4],pest or weed control at 62.5 g/ha [4],pest or weed control at 250 g/ha [4],pest or weed control at 15.625 g/ha [5],pest or weed control at 62.5 g/ha [5],pest or weed control at 250 g/ha [5],pest or weed control at 15.625 g/ha [6],pest or weed control at 62.5 g/ha [6],pest or weed control at 250 g/ha [6],plant injury at 15.625 g/ha (corn (Zea mays) [7]),plant injury at 62.5 g/ha (corn (Zea mays) [7]),plant injury at 250 g/ha (corn (Zea mays) [7]),further results
CN1C[C@H](c2ccc(C(F)(F)F)cc2)[C@@H](C(=O)Nc2ccccc2C(C)(C)C)C1=O (racemic) [Compound 1445],0%,0%,0%,0%,0%,0%,0%,0%,0%,0%,0%,0%,0%,0%,0%,0%,0%,0%,0%,0%,pest or weed control at 62.5 g/ha [3]: 0%; pest or weed control at 15.625 g/ha [8]: 0%; pest or weed control at 62.5 g/ha [8]: 0%; pest or weed control at 250 g/ha [8]: 0%; pest or weed control at 15.625 g/ha [9]: 0%; pest or weed control at 62.5 g/ha [9]: 0%; pest or weed control at 250 g/ha [9]: 0%; pest or weed control at 15.625 g/ha [10]: 0%; pest or weed control at 62.5 g/ha [10]: 0%; pest or weed control at 250 g/ha [10]: 0%; pest or weed control at 15.625 g/ha [11]: 0%; pest or weed control at 62.5 g/ha [11]: 0%; pest or weed control at 250 g/ha [11]: 0%; pest or weed control at 15.625 g/ha [12]: 0%; pest or weed control at 62.5 g/ha [12]: 0%; pest or weed control at 250 g/ha [12]: 0%
CN1C[C@H](c2ccc(C(F)(F)F)cc2)[C@@H](C(=O)Nc2ccc(F)cn2)C1=O (racemic) [Compound 1450],0%,0%,0%,0%,0%,0%,0%,0%,40%,70%,90%,0%,0%,80%,10%,30%,70%,0%,10%,10%,pest or weed control at 62.5 g/ha [3]: 0%; pest or weed control at 15.625 g/ha [8]: 0%; pest or weed control at 62.5 g/ha [8]: 0%; pest or weed control at 250 g/ha [8]: 0%; pest or weed control at 15.625 g/ha [9]: 0%; pest or weed control at 62.5 g/ha [9]: 10%; pest or weed control at 250 g/ha [9]: 20%; pest or weed control at 15.625 g/ha [10]: 0%; pest or weed control at 62.5 g/ha [10]: 30%; pest or weed control at 250 g/ha [10]: 60%; pest or weed control at 15.625 g/ha [11]: 0%; pest or weed control at 62.5 g/ha [11]: 0%; pest or weed control at 250 g/ha [11]: 30%; pest or weed control at 15.625 g/ha [12]: 0%; pest or weed control at 62.5 g/ha [12]: 10%; pest or weed control at 250 g/ha [12]: 20%
CN1C[C@H](c2ccc(F)c(OCC(F)(F)F)c2)[C@@H](C(=O)Nc2ccccc2F)C1=O (racemic) [Compound 1456],0%,0%,40%,0%,0%,40%,0%,40%,60%,80%,90%,0%,0%,90%,20%,60%,80%,10%,20%,60%,pest or weed control at 15.625 g/ha [8]: 0%; pest or weed control at 62.5 g/ha [8]: 20%; pest or weed control at 250 g/ha [8]: 20%; pest or weed control at 15.625 g/ha [9]: 30%; pest or weed control at 62.5 g/ha [9]: 30%; pest or weed control at 250 g/ha [9]: 20%; pest or weed control at 15.625 g/ha [10]: 50%; pest or weed control at 62.5 g/ha [10]: 60%; pest or weed control at 250 g/ha [10]: 70%; pest or weed control at 15.625 g/ha [11]: 0%; pest or weed control at 62.5 g/ha [11]: 30%; pest or weed control at 250 g/ha [11]: 40%; pest or weed control at 15.625 g/ha [12]: 10%; pest or weed control at 62.5 g/ha [12]: 10%; pest or weed control at 250 g/ha [12]: 20%
